Tests used:
Format in all cases: cell-based
[1] = test system: T-Rex 293 cells having increased expression of estrogen receptor alpha protein; assay: Cellular growth inhibition assay, T-Rex 293 cells, (+) doxycycline; details: T-REx-293, 72 h, Table 7-A; T-Rex 293 cells with doxycycline (increased ERα expression); 72 hours; CellTiter-Glo; read-out: (+) Dox GI50
Procedure, shortened: (§1)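 Viability read-out was CellTiter-Glo 2.0 luminescence after 72 h compound exposure, normalized to zero luminescence and fitted by four-parameter regression to give GI50. Cells were an ERα-inducible T-Rex 293 clone cultured with or without 3 ng/mL doxycycline in charcoal-stripped, phenol red-free medium.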

[2] = test system: T-Rex 293 cells lacking increased expression of estrogen receptor alpha protein; assay: Cellular growth inhibition assay, T-Rex 293 cells, (−) doxycycline; details: T-REx-293, 72 h, Table 7-A; T-Rex 293 cells without doxycycline (lacking increased ERα expression); 72 hours; CellTiter-Glo; read-out: (−) Dox GI50
Procedure, shortened: as §1

[3] = test system: MCF7 cells (ATCC #HTB-22); assay: Cellular growth inhibition assay, MCF7 cells purchased from ATCC; details: Homo sapiens, MCF7, 144 h, Table 8-A; MCF7 cells purchased from ATCC; six days; CellTiter-Glo; read-out: GI50
Procedure, shortened: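 MCF7 cells in RPMI 1640 with 10% FBS and 0.2 U/ml insulin, seeded at 1,500 cells/well (ATCC) or 225 cells/well (ECACC). Compounds added 24 h later, then 6 days at 37° C. Viability by CellTiter-Glo 2.0 luminescence. GI50 from four-parameter fit.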

Compound | GI50 [3] | GI50 [1] | GI50 [2]
Cc1sc2c(c1C)C(c1ccc(N3CCC(O)(CN4CCN(c5ccc([C@H]6c7ccc(O)cc7CC[C@H]6c6ccc(F)cc6F)cc5)CC4)CC3)cc1)=N[C@@H](Cc1ncco1)c1nnc(C)n1-2 [III-258] | 0.05 to 0.5 µM | 0.05 to 0.5 µM | 0.05 to 0.5 µM
Cc1sc2c(c1C)C(c1ccc(N3CCC(O)(CN4CCN(c5ccc([C@@H]6c7ccc(O)cc7CC[C@@H]6c6ccc(F)cc6F)cc5)CC4)CC3)cc1)=N[C@@H](Cc1ncco1)c1nnc(C)n1-2 [III-259] | < 0.05 µM | < 0.05 µM | 0.5 to 2.5 µM
Cc1sc2c(c1C)C(c1ccc(C3CN(C[C@H]4C[C@@H](CN5CC(c6ccc([C@@H]7c8ccc(O)cc8CC[C@@H]7c7ccccc7)cc6)C5)C4)C3)cc1)=N[C@@H](C)c1nnc(C)n1-2 [III-260] | 0.05 to 0.5 µM | < 0.05 µM | 0.5 to 2.5 µM
Cc1sc2c(c1C)C(c1ccc(C3CN(C[C@H]4C[C@H](CN5CC(c6ccc([C@@H]7c8ccc(O)cc8CC[C@@H]7c7ccccc7)cc6)C5)C4)C3)cc1)=N[C@@H](C)c1nnc(C)n1-2 [III-261] | 0.05 to 0.5 µM | < 0.05 µM | 0.5 to 2.5 µM
Cc1sc2c(c1C)C(c1ccc(N3CCC(O)(CC4CCN(c5ccc([C@@H]6c7ccc(B(O)O)cc7CC[C@@H]6c6ccccc6)cc5)CC4)CC3)cc1)=N[C@@H](C)c1nnc(C)n1-2 [III-264] | < 0.05 µM | < 0.05 µM | 0.5 to 2.5 µM
Cc1sc2c(c1C)C(c1ccc(N3CC4(CCC(O)(CN5CCC(c6cc(F)c([C@H]7c8ccc(O)cc8CC[C@H]7c7ccc(F)cc7)c(F)c6)CC5)CC4)C3)cc1)=N[C@@H](C)c1nnc(C)n1-2 [III-267] | 0.05 to 0.5 µM | 0.05 to 0.5 µM | > 2.5 µM

Second part, led by results:

GI50 [3] | Compound | GI50 [1] | GI50 [2]
< 0.05 µM | Cc1sc2c(c1C)C(c1ccc(N3CCC(O)(CN4CCN(c5cc(F)c([C@@H]6c7ccc(O)cc7CC[C@@H]6c6ccc(F)cc6)cc5F)CC4)CC3)cc1)=N[C@@H](C)c1nnc(C)n1-2 [III-256] | < 0.05 µM | 0.5 to 2.5 µM
0.05 to 0.5 µM | Cc1sc2c(c1C)C(c1ccc(N3CCC(O)(CN4CCN(c5cc(F)c([C@H]6c7ccc(O)cc7CC[C@H]6c6ccc(F)cc6)cc5F)CC4)CC3)cc1)=N[C@@H](C)c1nnc(C)n1-2 [III-257] | 0.05 to 0.5 µM | 0.5 to 2.5 µM
0.05 to 0.5 µM | Cc1sc2c(c1C)C(c1ccc(N3CC4(CC(CN5CCN(c6ccc([C@H]7c8ccc(O)cc8CC[C@H]7c7ccc(F)cc7)cc6)CC5)C4)C3)cc1)=N[C@@H](C)c1nnc(C)n1-2 [III-262] | 0.05 to 0.5 µM | 0.5 to 2.5 µM
< 0.05 µM | Cc1sc2c(c1C)C(c1ccc(N3CC4(CC(CN5CCN(c6ccc([C@@H]7c8ccc(O)cc8CC[C@@H]7c7ccc(F)cc7)cc6)CC5)C4)C3)cc1)=N[C@@H](C)c1nnc(C)n1-2 [III-263] | < 0.05 µM | 0.5 to 2.5 µM
0.05 to 0.5 µM | Cc1sc2c(c1C)C(c1ccc(N3CC4(CCC(CN5CCN(c6ccc([C@@H]7c8ccc(O)cc8CC[C@@H]7c7ccccc7)cc6Cl)CC5)CC4)C3)cc1)=N[C@@H](C)c1nnc(C)n1-2 [III-265] | 0.05 to 0.5 µM | > 2.5 µM
< 0.05 µM | Cc1sc2c(c1C)C(c1ccc(N3CC4(CCC(O)(CN5CCN(c6cc(F)c([C@@H]7c8ccc(O)cc8CC[C@@H]7c7ccc(F)cc7)c(F)c6)CC5)CC4)C3)cc1)=N[C@@H](C)c1nnc(C)n1-2 [III-266] | < 0.05 µM | 0.5 to 2.5 µM
< 0.05 µM | Cc1sc2c(c1C)C(c1ccc(N3CC4(C3)CC(O)(CN3CCN(c5ccc([C@@H]6c7ccc(O)cc7CC[C@@H]6c6ccccc6)cc5)CC3)C4)cc1)=N[C@@H](C)c1nnc(C)n1-2 [III-268] | < 0.05 µM | 0.5 to 2.5 µM
0.05 to 0.5 µM | Cc1sc2c(c1C)C(c1ccc(N3CCC(O)(CN4CCN(c5ccc([C@H]6c7ccc(O)cc7CC[C@H]6c6ccc(F)c(F)c6)c(F)c5)CC4)CC3)cc1)=N[C@@H](C)c1nnc(C)n1-2 [III-269] | 0.05 to 0.5 µM | 0.05 to 0.5 µM

Reference: US12558428B2, “Heterobifunctional compounds and their use in treating disease” (Halda Therapeutics OpCo, Inc., priority 2024, dated 2026)
